Here are results for 15 molecules from patent publication US20150005281A1, “PYRIMIDINE-2,4-DIAMINE DERIVATIVES AS KINASE INHIBITORS” (Cellzome Limited, priority 2011, published 2015).

Each structure is given as a SMILES string. Bounds are passed on as bounds.

Common to all, as to assay type: binding
The target of one test is T1, JAK3 (Homo sapiens, UniProt P52333).
T1 construct: endogenous in cells; host or cells: Molt4 (ATCC CRL-1582) and Ramos (ATCC CRL-1596) cells; mixed lysate 1:2
T1 sequence (P52333 1-1124): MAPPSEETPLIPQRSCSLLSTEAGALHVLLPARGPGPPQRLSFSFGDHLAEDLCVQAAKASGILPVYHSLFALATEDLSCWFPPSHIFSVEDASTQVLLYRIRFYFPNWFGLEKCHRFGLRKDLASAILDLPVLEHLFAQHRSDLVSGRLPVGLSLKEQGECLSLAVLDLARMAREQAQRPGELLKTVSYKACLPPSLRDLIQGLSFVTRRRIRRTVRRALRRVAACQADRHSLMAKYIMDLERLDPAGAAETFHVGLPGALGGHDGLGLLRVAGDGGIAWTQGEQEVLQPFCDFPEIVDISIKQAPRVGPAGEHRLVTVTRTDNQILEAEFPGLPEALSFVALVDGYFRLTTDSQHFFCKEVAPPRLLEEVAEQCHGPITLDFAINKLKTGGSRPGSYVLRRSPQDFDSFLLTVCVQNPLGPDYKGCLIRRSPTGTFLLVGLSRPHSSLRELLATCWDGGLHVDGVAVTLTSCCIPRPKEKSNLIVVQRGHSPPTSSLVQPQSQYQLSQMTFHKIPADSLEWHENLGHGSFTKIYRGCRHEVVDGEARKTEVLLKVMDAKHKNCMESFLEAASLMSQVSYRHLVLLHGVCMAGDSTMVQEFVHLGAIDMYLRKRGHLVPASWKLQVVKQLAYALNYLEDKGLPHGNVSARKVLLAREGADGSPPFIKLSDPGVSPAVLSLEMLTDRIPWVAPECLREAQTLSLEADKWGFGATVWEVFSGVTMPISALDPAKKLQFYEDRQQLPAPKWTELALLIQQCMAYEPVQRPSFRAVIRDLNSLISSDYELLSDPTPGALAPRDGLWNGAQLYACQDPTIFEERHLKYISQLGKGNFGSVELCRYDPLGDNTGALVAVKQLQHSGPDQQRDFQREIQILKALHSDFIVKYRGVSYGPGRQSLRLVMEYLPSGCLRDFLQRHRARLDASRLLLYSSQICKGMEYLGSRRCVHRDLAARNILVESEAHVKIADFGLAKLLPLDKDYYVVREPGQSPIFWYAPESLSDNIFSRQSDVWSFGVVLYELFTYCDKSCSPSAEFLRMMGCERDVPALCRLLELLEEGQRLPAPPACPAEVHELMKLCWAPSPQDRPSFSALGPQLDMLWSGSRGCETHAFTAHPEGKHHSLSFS
Nature of the test: Kinobeads assay with immunodetection, JAK3. The conditions noted are these: for IC50: Kinobeads assay, mixed Molt4/Ramos lysate, read-out: Inhibition values (IC50) JAK3. An outline of the steps:
(§1)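 Lysates of Molt4 and Ramos cells, combined 1:2 and diluted to 10 mg/mL in Tris pH 7.4 buffer with 0.8% NP40, are incubated for 3 h in the cold with compound and the affinity matrix. Beads are washed, eluted in SDS buffer, and kinases are quantified by infrared immunodetection to give IC50s.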

The next test addresses T2, JAK2 (Homo sapiens, UniProt O60674).
T2 construct: endogenous in cells; host or cells: Molt4 (ATCC CRL-1582) and Ramos (ATCC CRL-1596) cells; mixed lysate 1:2
Description: Kinobeads assay with immunodetection, JAK2. To be noted: mixed Molt4/Ramos lysate, read-out: Inhibition values (IC50) JAK2. The method, boiled down: as §1

For the next test, the target named is T3, TYK2 (Homo sapiens, UniProt P29597).
T3 construct: endogenous in cells; host or cells: Molt4 (ATCC CRL-1582) and Ramos (ATCC CRL-1596) cells; mixed lysate 1:2
Nature of the test: Kinobeads assay with immunodetection, TYK2. The conditions noted are these: for IC50: Kinobeads assay, mixed Molt4/Ramos lysate, read-out: Inhibition values (IC50) Tyk2. An outline of the steps:
as §1

Another test deals with T4, JAK1 (Homo sapiens, UniProt P23458).
T4 construct: endogenous in cells; host or cells: Molt4 (ATCC CRL-1582) and Ramos (ATCC CRL-1596) cells; mixed lysate 1:2
Nature of the test: Kinobeads assay with immunodetection, JAK1. The conditions noted are these: for IC50: Kinobeads assay, mixed Molt4/Ramos lysate, read-out: Inhibition values (IC50) JAK1. An outline of the steps:
as §1

T3 sequence (P29597 whole entry): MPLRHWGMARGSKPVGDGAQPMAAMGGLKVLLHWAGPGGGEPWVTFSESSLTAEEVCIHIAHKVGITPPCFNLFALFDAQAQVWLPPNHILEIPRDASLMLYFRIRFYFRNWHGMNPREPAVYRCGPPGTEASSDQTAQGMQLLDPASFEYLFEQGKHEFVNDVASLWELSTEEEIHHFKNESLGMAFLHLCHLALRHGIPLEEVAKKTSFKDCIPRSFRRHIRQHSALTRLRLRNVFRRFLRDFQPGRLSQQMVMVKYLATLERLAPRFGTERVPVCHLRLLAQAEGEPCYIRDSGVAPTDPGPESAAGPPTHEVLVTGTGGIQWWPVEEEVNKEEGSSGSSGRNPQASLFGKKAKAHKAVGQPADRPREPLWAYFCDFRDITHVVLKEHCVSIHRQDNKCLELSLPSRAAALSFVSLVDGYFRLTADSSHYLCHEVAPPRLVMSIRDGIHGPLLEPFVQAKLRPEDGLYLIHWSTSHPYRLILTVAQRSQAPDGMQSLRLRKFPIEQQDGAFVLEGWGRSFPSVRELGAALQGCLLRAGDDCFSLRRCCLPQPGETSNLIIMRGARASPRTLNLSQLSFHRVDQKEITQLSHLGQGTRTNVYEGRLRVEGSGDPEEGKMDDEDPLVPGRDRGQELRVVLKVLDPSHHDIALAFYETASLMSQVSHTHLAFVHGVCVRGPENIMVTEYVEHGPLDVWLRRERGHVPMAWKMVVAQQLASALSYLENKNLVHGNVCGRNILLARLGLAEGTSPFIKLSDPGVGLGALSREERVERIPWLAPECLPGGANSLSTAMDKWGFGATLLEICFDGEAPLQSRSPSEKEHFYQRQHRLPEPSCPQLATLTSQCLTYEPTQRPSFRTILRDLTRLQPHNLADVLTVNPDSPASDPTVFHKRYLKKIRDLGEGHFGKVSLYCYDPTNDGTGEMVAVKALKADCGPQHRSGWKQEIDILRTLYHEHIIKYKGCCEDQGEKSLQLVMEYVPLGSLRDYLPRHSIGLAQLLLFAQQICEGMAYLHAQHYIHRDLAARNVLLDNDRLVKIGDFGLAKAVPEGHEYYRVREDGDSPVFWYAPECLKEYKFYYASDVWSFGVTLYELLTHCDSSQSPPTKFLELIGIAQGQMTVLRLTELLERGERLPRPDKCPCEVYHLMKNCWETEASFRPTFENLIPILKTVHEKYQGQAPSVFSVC
T2 sequence (O60674 whole entry): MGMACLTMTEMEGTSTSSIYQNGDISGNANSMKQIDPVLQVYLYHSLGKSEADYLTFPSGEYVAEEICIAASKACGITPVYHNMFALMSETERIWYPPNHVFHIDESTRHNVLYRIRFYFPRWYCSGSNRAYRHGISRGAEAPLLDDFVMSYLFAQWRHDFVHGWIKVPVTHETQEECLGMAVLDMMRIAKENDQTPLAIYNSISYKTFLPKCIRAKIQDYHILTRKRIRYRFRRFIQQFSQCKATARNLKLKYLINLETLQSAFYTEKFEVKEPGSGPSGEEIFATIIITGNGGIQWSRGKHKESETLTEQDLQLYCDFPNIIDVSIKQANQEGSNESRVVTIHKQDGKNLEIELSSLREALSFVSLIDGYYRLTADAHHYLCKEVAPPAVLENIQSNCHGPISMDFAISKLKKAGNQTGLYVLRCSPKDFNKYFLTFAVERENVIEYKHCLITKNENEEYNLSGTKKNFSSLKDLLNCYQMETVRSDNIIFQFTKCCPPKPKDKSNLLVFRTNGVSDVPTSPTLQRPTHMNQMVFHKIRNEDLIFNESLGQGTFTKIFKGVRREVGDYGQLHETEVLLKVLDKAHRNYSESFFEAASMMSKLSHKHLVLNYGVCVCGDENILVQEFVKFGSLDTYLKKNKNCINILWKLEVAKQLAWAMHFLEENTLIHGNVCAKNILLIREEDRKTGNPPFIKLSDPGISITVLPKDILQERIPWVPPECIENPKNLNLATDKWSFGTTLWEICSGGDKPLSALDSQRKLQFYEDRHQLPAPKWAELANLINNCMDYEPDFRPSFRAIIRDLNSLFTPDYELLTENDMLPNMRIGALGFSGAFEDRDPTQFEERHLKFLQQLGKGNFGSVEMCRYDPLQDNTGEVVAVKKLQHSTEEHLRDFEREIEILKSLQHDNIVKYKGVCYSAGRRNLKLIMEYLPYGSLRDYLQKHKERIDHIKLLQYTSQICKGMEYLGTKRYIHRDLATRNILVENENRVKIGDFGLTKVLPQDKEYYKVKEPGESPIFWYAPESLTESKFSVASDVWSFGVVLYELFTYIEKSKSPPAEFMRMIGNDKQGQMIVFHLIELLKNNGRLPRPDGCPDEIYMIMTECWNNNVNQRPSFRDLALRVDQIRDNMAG
T4 sequence (P23458 whole entry): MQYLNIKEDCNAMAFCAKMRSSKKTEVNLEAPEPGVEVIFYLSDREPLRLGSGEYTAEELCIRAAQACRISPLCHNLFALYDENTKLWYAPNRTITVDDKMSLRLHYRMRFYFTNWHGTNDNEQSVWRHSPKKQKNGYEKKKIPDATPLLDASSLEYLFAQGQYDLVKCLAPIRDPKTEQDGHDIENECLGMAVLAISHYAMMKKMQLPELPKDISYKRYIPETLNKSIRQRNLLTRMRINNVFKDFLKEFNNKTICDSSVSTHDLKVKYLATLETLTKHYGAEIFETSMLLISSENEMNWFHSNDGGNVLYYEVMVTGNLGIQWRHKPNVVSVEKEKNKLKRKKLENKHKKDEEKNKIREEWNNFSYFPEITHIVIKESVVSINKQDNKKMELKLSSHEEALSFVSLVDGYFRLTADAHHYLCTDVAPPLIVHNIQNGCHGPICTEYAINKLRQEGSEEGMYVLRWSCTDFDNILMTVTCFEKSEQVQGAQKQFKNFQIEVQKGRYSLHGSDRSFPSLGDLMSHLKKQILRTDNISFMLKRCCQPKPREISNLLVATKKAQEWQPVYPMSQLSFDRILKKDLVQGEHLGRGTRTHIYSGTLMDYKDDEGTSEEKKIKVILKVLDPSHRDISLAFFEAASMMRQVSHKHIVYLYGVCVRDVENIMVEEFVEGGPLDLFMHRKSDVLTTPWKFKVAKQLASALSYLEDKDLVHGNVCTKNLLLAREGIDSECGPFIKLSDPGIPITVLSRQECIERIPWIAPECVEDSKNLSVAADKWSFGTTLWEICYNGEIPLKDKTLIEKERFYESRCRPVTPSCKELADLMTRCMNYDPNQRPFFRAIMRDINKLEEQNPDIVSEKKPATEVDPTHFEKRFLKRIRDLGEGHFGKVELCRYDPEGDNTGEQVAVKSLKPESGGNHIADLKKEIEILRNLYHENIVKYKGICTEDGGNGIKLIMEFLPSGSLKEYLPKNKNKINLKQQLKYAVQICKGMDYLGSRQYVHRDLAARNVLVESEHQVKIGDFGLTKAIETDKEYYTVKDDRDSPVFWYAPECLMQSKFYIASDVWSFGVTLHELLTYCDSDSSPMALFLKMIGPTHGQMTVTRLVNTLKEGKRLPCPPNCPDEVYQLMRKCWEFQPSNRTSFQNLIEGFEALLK

On to `Cn1cc(Nc2ncc(Cl)c(NC[C@H]3CCN(C(=O)CC#N)C3)n2)cn1` [Example 58, (R)-3-(3-((5-chloro-2-(1-methyl-1H-pyrazol-4-ylamino)pyrimidin-4-ylamino)methyl)pyrrolidin-1-yl)-3-oxopropanenitrile], for which the IC50 on JAK3 is less than 100 nM; at JAK2 it was 100 to 1000 nM; on TYK2, less than 100 nM; on JAK1, less than 100 nM. On JAK1, the “Selectivity ratio over JAK2, JAK1” value is “JAK1 = 15”.

Consider `CC(=O)N1CCCC[C@@H]1CNc1nc(Nc2cnn(CCO)c2)ncc1Cl` [Example 40, (R)-1-(2-(((5-chloro-2-((1-(2-hydroxyethyl)-1H-pyrazol-4-yl)amino)pyrimidin-4-yl)amino)methyl)piperidin-1-yl)ethanone], for which the IC50 is less than 100 nM at JAK3, 100 to 1000 nM at JAK2, less than 100 nM at TYK2 and 100 to 1000 nM on JAK1. For the same molecule, the “Selectivity ratio over JAK2, Tyk2” value at TYK2 is “Tyk2 = 10”.

For `Cn1cc(Nc2ncc(Cl)c(NC[C@@H]3CCCN3C(=O)CCC#N)n2)cn1` [Example 92, (S)-4-(2-(((5-chloro-2-((1-methyl-1H-pyrazol-4-yl)amino)pyrimidin-4-yl)amino)methyl)pyrrolidin-1-yl)-4-oxobutanenitrile], the IC50 was less than 100 nM on JAK3, 100 to 1000 nM at JAK2, less than 100 nM on TYK2 and less than 100 nM on JAK1. Moreover, the “Selectivity ratio over JAK2, JAK1” value at JAK1 is on record as “JAK1 = 30”.

As to `CN(C)C(=O)Cn1cc(Nc2ncc(Cl)c(NC[C@H]3CCCN3)n2)cn1` [Example 64, (R)-2-(4-(5-chloro-4-(pyrrolidin-2-ylmethylamino)pyrimidin-2-ylamino)-1H-pyrazol-1-yl)-N,N-dimethylacetamide], the IC50 on JAK3 is 1000 to 10000 nM; at JAK2, more than 10000 nM; at TYK2, 1000 to 10000 nM; at JAK1, 100 to 1000 nM.

Consider `C=CC(=O)N1CC[C@@H](CNc2nc(Nc3cnn(CCO)c3)ncc2Cl)C1` [Example 29, (S)-1-(3-(((5-chloro-2-((1-(2-hydroxyethyl)-1H-pyrazol-4-yl)amino)pyrimidin-4-yl)amino)methyl)pyrrolidin-1-yl)prop-2-en-1-one], for which the IC50 on JAK3 is 100 to 1000 nM; at JAK2, more than 10000 nM; on TYK2, 1000 to 10000 nM; on JAK1, 100 to 1000 nM.

Take `Cn1cc(Nc2ncc(Cl)c(NC[C@@H]3CCCN(C(=O)CC#N)C3)n2)cn1` [Example 135, (S)-3-(3-(((5-chloro-2-((1-methyl-1H-pyrazol-4-yl)amino)pyrimidin-4-yl)amino)methyl)piperidin-1-yl)-3-oxopropanenitrile]: at JAK3, the “Selectivity ratio over JAK2, JAK3” value is “JAK3 = 40”. Further, the IC50 on JAK3 is less than 100 nM; at JAK2 it was 100 to 1000 nM; on TYK2, less than 100 nM; on JAK1, less than 100 nM.

As to `Cc1cnc(Nc2cnn(C)c2)nc1NC[C@@H]1C[C@H](F)CN1CC#N` [Example 102, 2-((2S,4S)-4-fluoro-2-(((5-methyl-2-((1-methyl-1H-pyrazol-4-yl)amino)pyrimidin-4-yl)amino)methyl)pyrrolidin-1-yl)acetonitrile], the IC50 on JAK3 is 100 to 1000 nM; at JAK2 it was 1000 to 10000 nM; on TYK2 it was 100 to 1000 nM; on JAK1 it was less than 100 nM. Moreover, the “Selectivity ratio over JAK2, JAK1” value at JAK1 is reported as “JAK1 = 16”.

With `Cn1cc(Nc2ncc(Cl)c(NC[C@H]3CCCN3C(=O)CO)n2)cn1` [Example 54, (R)-1-(2-((5-chloro-2-(1-methyl-1H-pyrazol-4-ylamino)pyrimidin-4-ylamino)methyl)pyrrolidin-1-yl)-2-hydroxyethanone], the IC50 was 100 to 1000 nM at JAK3, 100 to 1000 nM on JAK2, less than 100 nM on TYK2 and less than 100 nM at JAK1. The “Selectivity ratio over JAK2, Tyk2” value on TYK2 is “Tyk2 = 12”.

In the case of `Cn1cc(Nc2ncc(Cl)c(NC[C@@H]3CCCN3CCS(C)(=O)=O)n2)cn1` [Example 82, (S)-5-chloro-N^2-(1-methyl-1H-pyrazol-4-yl)-N^4-((1-(2-(methylsulfonyl)ethyl)pyrrolidin-2-yl)methyl)pyrimidine-2,4-diamine], the IC50 at JAK3 was 100 to 1000 nM; on JAK2, less than 100 nM; on TYK2, less than 100 nM; at JAK1, less than 100 nM. Besides, the “Selectivity ratio over JAK2, JAK1” value at JAK1 is “JAK1 = 34”.

Turning to `Cn1cc(Nc2ncc(Cl)c(NC[C@H]3CCCN3CCO)n2)cn1` [Example 48, (R)-2-(2-((5-chloro-2-(1-methyl-1H-pyrazol-4-ylamino)pyrimidin-4-ylamino)methyl)pyrrolidin-1-yl)ethanol], the “Selectivity ratio over JAK2, JAK3” value at JAK3 is given as “JAK3 = 52”. Moreover, the IC50 was 100 to 1000 nM on JAK3, 1000 to 10000 nM at JAK2, 100 to 1000 nM on TYK2 and 100 to 1000 nM on JAK1.

For the molecule `CCN1CCC[C@H]1CNc1nc(Nc2cnn(C)c2)ncc1Cl` [Example 61, (S)-5-chloro-N4-((1-ethylpyrrolidin-2-yl)methyl)-N2-(1-methyl-1H-pyrazol-4-yl)pyrimidine-2,4-diamine], the IC50 on JAK3 was 100 to 1000 nM; on JAK2, more than 10000 nM; at TYK2, more than 10000 nM; on JAK1 it was 100 to 1000 nM. On JAK1, the “Selectivity ratio over JAK2, JAK1” value was “JAK1 = 49”.

On to `Cn1cc(Nc2ncc(Cl)c(NC[C@H]3CCCN3S(C)(=O)=O)n2)cn1` [Example 5, (R)-5-chloro-N^2-(1-methyl-1H-pyrazol-4-yl)-N^4-((1-(methylsulfonyl)pyrrolidin-2-yl)methyl)pyrimidine-2,4-diamine], for which the IC50 at JAK3 is less than 100 nM; on JAK2 it was 100 to 1000 nM; on TYK2 it was less than 100 nM; on JAK1 it was less than 100 nM. On JAK1, the “Selectivity ratio over JAK2, JAK1” value is listed as “JAK1 = 13”.

In the case of `Cn1cc(Nc2ncc(Cl)c(NC[C@H]3CCCN(C(=O)CC#N)C3)n2)cn1` [Example 137, (R)-3-(3-(((5-chloro-2-((1-methyl-1H-pyrazol-4-yl)amino)pyrimidin-4-yl)amino)methyl)piperidin-1-yl)-3-oxopropanenitrile], at JAK3, the “Selectivity ratio over JAK2, JAK3” value is “JAK3 = 33”. Also, the IC50 on JAK3 was less than 100 nM; on JAK2, 100 to 1000 nM; at TYK2, less than 100 nM; at JAK1 it was less than 100 nM.

For the molecule `Cn1cc(Nc2ncc(Cl)c(NC[C@H]3CCN(CCS(C)(=O)=O)C3)n2)cn1` [Example 55, (R)-5-chloro-N^2-(1-methyl-1H-pyrazol-4-yl)-N^4-((1-(2-(methylsulfonyl)ethyl)pyrrolidin-3-yl)methyl)pyrimidine-2,4-diamine], the IC50 on JAK3 is less than 100 nM; on JAK2 it was 100 to 1000 nM; on TYK2 it was 100 to 1000 nM; on JAK1, less than 100 nM. Further, the “Selectivity ratio over JAK2, JAK1” value at JAK1 was “JAK1 = 11”.

Take `C=CC(=O)N1CCC[C@@H]1CNc1nc(Nc2cnn(C)c2)ncc1Cl` [Example 3, (R)-1-(2-(((5-chloro-2-((1-methyl-1H-pyrazol-4-yl)amino)pyrimidin-4-yl)amino)methyl)pyrrolidin-1-yl)prop-2-en-1-one]: the IC50 at JAK3 is 100 to 1000 nM; on JAK2, 1000 to 10000 nM; on TYK2 it was 100 to 1000 nM; on JAK1, 100 to 1000 nM. For the same molecule, at TYK2, the “Selectivity ratio over JAK2, Tyk2” value is listed as “Tyk2 = 10”.

As usually defined, the IC50 is the concentration at which inhibition is half-maximal.
